Test results from PubChem BioAssay (NCI).
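Cells were grown in 96-well plates and exposed to each compound for 48 hours at five concentrations; endpoints were interpolated linearly between bracketing concentrations, or set to the highest concentration if not reached. GI50 marks 50% less growth. TGI: total growth inhibition.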

Assays:
Assay in all cases: inhibition of tumour cell growth, NCI panel, 48 h
[1] = tested on: UACC-257 melanoma
[2] = tested on: KM12 colon
[3] = tested on: OVCAR-5 ovarian
[4] = tested on: HS 578T breast
[5] = tested on: SF-539 CNS
[6] = tested on: HCT-15 colon
[7] = tested on: TK-10 renal
[8] = tested on: SK-MEL-2 melanoma

Structure (SMILES)	GI50 [1] [µM]	TGI [1] [µM]	GI50 [2] [µM]	TGI [2] [µM]	GI50 [3] [µM]	TGI [3] [µM]	GI50 [4] [µM]	TGI [4] [µM]	GI50 [5] [µM]	TGI [5] [µM]	GI50 [6] [µM]	TGI [6] [µM]	GI50 [7] [µM]	TGI [7] [µM]	GI50 [8] [µM]	TGI [8] [µM]
NCCOCCOCCNc1nc(-c2ccc(Cl)cc2)nc(N2CCN(c3ccccn3)CC2)n1	1.87	3.55	1.84	3.5	2.32	5.11	1.92	4.6	2.41	5.18	1.87	3.85	–	–	–	–
COC(=O)COc1ccc(/C=C2/N=C(c3ccccc3)N(c3c(C)n(C)n(-c4ccccc4)c3=O)C2=O)cc1	–	–	26.6	84.2	62.4	> 100	24.7	60.5	16.1	30.2	66.5	> 100	18.5	34.1	19.1	38
Cc1cc(N=C2C=C(Br)C(=O)C(Br)=C2)cc(CN(CC(=O)O)CC(=O)O)c1O	–	> 100	–	–	–	> 100	–	> 100	–	> 100	–	> 100	–	–	–	> 100
Cc1c(-c2ccnc(N)n2)c2c(n1Cc1ccccc1)C(=O)c1ccccc1C2=O	23.2	> 100	8.82	30.4	47.4	> 100	2.62	8.05	–	–	4.8	> 100	17.3	66.8	11.3	47.7
C1=C2CCCC3=Cc4ccccc4OC23Oc2ccccc21	5.49	> 100	3.61	56.7	3.46	> 100	–	–	1.92	5.01	3.68	> 100	9.87	> 100	4.31	25.6
CC(C)(C)OC(=O)NCCCn1c2c(c3ccccc3c1=O)C(=O)c1ccccc1-2	75.4	> 100	67	> 100	–	–	15.8	71.6	10.3	29.3	> 100	> 100	22.3	63	49.3	> 100
COc1cc2c(cc1OCCCCCCN1CCN(CC(=O)Nc3ccc(Cl)cc3C(=O)c3ccccc3Cl)CC1)N=CC1CCCN1C2=O (configuration not stated)	0.2	0.775	–	–	0.567	1.34	0.243	0.589	0.289	0.74	0.518	1.18	0.497	1.17	0.217	0.556
COc1ccc(C(=O)NNc2nc(Cl)nc(N3CCN(C(c4ccccc4)c4ccccc4)CC3)n2)cc1	2.84	9.06	> 100	> 100	13.2	33.2	1.95	4.76	1.73	3.21	–	–	> 100	> 100	2.14	4.91
Cn1c(-c2ccc(/C=N/NC(=S)N/N=C/c3ccc(-c4c[n+]5ccsc5n4C)cc3)cc2)c[n+]2ccsc12	–	> 100	–	> 100	–	> 100	–	> 100	–	> 100	–	> 100	–	> 100	–	–
O=C(Nn1c(-c2ccccc2)nc2ccccc2c1=O)c1ccccc1O	–	> 100	–	> 100	–	> 100	–	> 100	–	> 100	–	> 100	–	> 100	–	–
COc1cc2c(cc1OC)C(=O)/C(=C/c1cc(-c3ccc4c(c3)OCO4)n[nH]1)C2	1.71	3.13	1.29	2.73	1.56	3	2.61	8.08	1.27	2.57	1.12	2.81	1.89	3.36	–	–
CN(C)CCSS(=O)(=O)O	–	–	–	> 100	–	> 100	–	> 100	–	> 100	–	> 100	–	> 100	–	> 100
Cc1ccc(N=Nc2c(O)ccc3ccccc23)cc1	–	> 100	–	> 100	–	> 100	–	> 100	–	–	–	> 100	–	> 100	–	> 100
O=C(Nc1ccc(-c2nc(-c3cccc(OCCN4CCOCC4)c3)c(-c3ccnc(Br)c3)[nH]2)cc1)c1ccccc1	2.23	6.36	–	–	3.73	> 100	0.267	0.885	1.23	3.71	0.72	3.2	4.48	> 100	2.75	> 100
CCCCCCCCNCCC[C@@H](C)[C@H]1CC[C@H]2[C@@H]3[C@H](OCCCN)C[C@H]4C[C@H](OCCCN)CC[C@]4(C)[C@H]3C[C@H](OCCCN)[C@]12C	2.89	8.64	–	–	2.26	12.5	2.43	5.59	0.81	2.6	3.39	16.9	1.79	7.36	3.75	> 31.3
